A short description of data set [1]: Cytotoxicity, neutral red uptake assay, AGS. The settings on record: human, AGS gastric epithelial cells, confluent monolayer, read-out: IC50 ± SD, cytotoxicity AGS. Format: cell-based. As for the experimental part:
(§1) Human lung fibroblasts MRC-5 (ATCC CCL-171) were grown in minimum essential Eagle medium (MEM) with Earles’s salts and 2 mM L-glutamine (Sigma-Aldrich Co.). Human epithelial gastric cells AGS (ATCC CRL-1739) were grown in Ham F-12 medium containing 1 mM L-glutamine. Both media were supplemented with 1.5 g/L sodium bicarbonate (Sigma-Aldrich Co.), 10% heat-inactivated fetal bovine serum (FBS), 100 IU/mL penicillin and 100 µg/mL streptomycin.Both cell lines were grown as monolayers in a humidified incubator with 5% CO2 in air at 37 °C. Culture media, antibiotics and FBS were obtained from Invitrogen Corp.
(§2) Cytotoxicity values were required as a reference to determine the working concentrations in the subsequent experiments. Briefly, confluent cultures of MRC-5 and AGS cells were treated during 24 h with medium containing the compounds at concentrations ranging from 0 up to 1,000 µM. The products were first dissolved in DMSO (1% final concentration) and then in the corresponding culture medium supplemented with 2% FBS. Untreated cells were used as controls. Cell viability was determined at the end of the incubation by means of the neutral red uptake (NRU) assay. Lansoprazole (Sigma-Aldrich Co., min. 98% by TLC) was used as reference compound.

Data set [2] can be described thus: Cytotoxicity, neutral red uptake assay, MRC-5. Format: cell-based. The settings on record: human, MRC-5 lung fibroblasts, confluent monolayer, confluent MRC-5, 24 h, read-out: IC50 ± SD, cytotoxicity MRC-5. As for the experimental part: as §1, §2
In data set [3] the test system is AGS cells. The experiment in a line: Cellular reduced glutathione (GSH) content of AGS cells. As to conditions: 4 h; for GSH: post-confluent AGS, control 13.6 ± 0.7. Format: cell-based, human. As for the experimental part:
Untreated cells were used as controls. […] After incubation, the GSH content was determined using a colorimetric kit (BioAssays Systems, Hayward, CA, USA). Results are expressed as nanomol of soluble reduced sulfhydryls/10^6 cells.

Data set [4] relates to AGS cells. Nature of the data set: Sodium taurocholate (NaT)-induced damage to AGS cells. Format: cell-based, human. As to conditions: 60 min pre-treatment, then 10 mM NaT 30 min. As for the experimental part:
The effect of sodium taurocholate (NaT) on cell viability was determined according to [15]. […] Then, 10 mM NaT was added to all wells for 30 min. Untreated cells were used as controls. […] After incubation, the NRU assay was carried out.

Data set [5] relates to human erythrocyte membranes. The experiment in a line: Inhibition of lipoperoxidation in erythrocyte membranes. The data set is classed as biochemical. As to conditions: at 100 µg/mL. The procedure: The inhibition of lipid peroxidation was determined using human erythrocyte membranes. The compounds were tested at 100 µg/mL.
The next data set has as its system MRC-5 fibroblasts. The experiment in a line: MRC-5 fibroblast proliferation assay. Format: cell-based, human. As to conditions: MRC-5, 4 days, concentrations 1/64 to 1/2 of IC50. The procedure:
Untreated cells were used as controls. Cell viability was determined at the end of the incubation by means of the NRU assay.

Data set [6] deals with AGS cells. Nature of the data set: Prostaglandin E2 (PGE2) content of AGS cells. The data set is classed as cell-based, human. As to conditions: 1 h; for PGE2: post-confluent AGS, control 52 ± 5. As for the experimental part: One day after confluence, AGS cells were treated for 1 h with the compounds at 1/2 and 1/4 of the respective IC50 values. A control with medium only was included. Indomethacin (100 μM) was used as standard inhibitor of prostaglandin synthesis (Sigma-Aldrich Co., min. 99% by TLC). After incubation, PGE2 content was determined by means of a specific enzyme immunoassay kit (R & D Systems KGE004B, Minneapolis, MN, USA) and values were calculated according to the manufacturer instructions. Results are expressed as pg/well.

Data set [7] concerns human erythrocyte membranes. Nature of the data set: Inhibition of lipoperoxidation in erythrocyte membranes. The data set is classed as biochemical.

Regarding `COC(=O)[C@@]1(C)CCC[C@@]2(C)C1CC[C@H](C)[C@@H]2CC[C@@H](C)CC(=O)OC1=C(CCC(C)C)C(=O)c2ccccc2C1=O` (stereo partly drawn) [Compound 16, Dihydroprenyl lapachol 17β-dihydrojunicedrate methyl ester], the IC50 at 24 h in data set [1] amounted to 643 ± 39 µM; in data set [2], 596 ± 44 µM. Moreover, the values for the GSH with AGS cells [3] (80 µM) and in the data set on AGS cells [3] (160 µM) were 14.9 ± 0.7 nmol/10^6 cells and 14.1 ± 0.6 nmol/10^6 cells, respectively. Also, the “reduction in cell viability, NaT-induced damage” value (“reduction in cell viability” for short) in the data set with AGS cells [4] (81 µM) amounted to 44%. In addition, the “% Inhibition of the lipoperoxidation” value in data set [5] was determined as 46%.

As for `C=C1CCC2[C@](C)(CCC[C@]2(C)C(=O)O)[C@H]1CC[C@@H](C)CC(=O)OC1=C(CCC(C)C)C(=O)C2=C(CCCC2)C1=O` (stereo partly drawn) [Compound 11, Dihydroprenyl-5,6,7,8-tetrahydrolapachoyl junicedrate], the figures for the 50% inhibitory concentration (IC50) at 24 h in data set [1] and in data set [2] were 63 ± 4 µM and 42 ± 2 µM, respectively. Also, the “Percentual proliferative increase compared to untreated cells” value (from here on “Percentual proliferative increase”) with MRC-5 fibroblasts was 3.6%. In addition, the GSH is on record as 13.1 ± 0.6 nmol/10^6 cells in the data set with AGS cells [3] (8 µM) and 13.2 ± 0.5 nmol/10^6 cells with AGS cells [3] (16 µM). Also, in data set [5], the “% Inhibition of the lipoperoxidation” value turned out to be 44%.

Regarding `CC(C)=CCC1=C(O)C(=O)c2ccccc2C1=O` [Compound 1, Lapachol], the IC50 at 24 h in data set [1] is 571 ± 28 µM; in data set [2] it was more than 1000 µM. The GSH in the data set on AGS cells [3] (72 µM) is listed as 13.9 ± 0.9 nmol/10^6 cells; in the data set on AGS cells [3] (143 µM) it was 14.1 ± 0.8 nmol/10^6 cells. Moreover, in data set [5], the “% Inhibition of the lipoperoxidation” value was found to be 38%. Further, in the data set on AGS cells [6] (Homo sapiens, AGS, 143 µM, read-out: increase in PGE2 content), the fold induction at 143 µM worked out at 2.3. Also, the fold induction at 286 µM in the data set on AGS cells [6] (Homo sapiens, AGS, 286 µM, read-out: increase in PGE2 content) was 2.5. Also, the values for the PGE2 in the data set with AGS cells [6] (143 µM) and with AGS cells [6] (286 µM) were 117 ± 10 pg/mL and 132 ± 12 pg/mL, respectively.

Turning to `CC(C)=CCC1=C(OC(=O)C[C@H](C)CC[C@H]2[C@@H](C)CCC3[C@]2(C)CCC[C@]3(C)C(=O)O)C(=O)c2ccccc2C1=O` (stereo partly drawn) [Compound 13, Lapachoyl 17β-dihydrojunicedrate], the values for the concentration for half-maximal inhibition (IC50) at 24 h in data set [1] and in data set [2] were 351 ± 29 µM and 355 ± 21 µM, respectively. Moreover, the “Percentual proliferative increase” value with MRC-5 fibroblasts worked out at 7.3%. Besides, the GSH is 11.9 ± 0.4 nmol/10^6 cells in the data set with AGS cells [3] (44 µM) and 11.4 ± 0.6 nmol/10^6 cells with AGS cells [3] (88 µM). Moreover, the “reduction in cell viability” value in the data set with AGS cells [4] (45 µM) and in the data set on AGS cells [4] (89 µM) was 38% each time. Besides, in data set [7], the “IC50, inhibition of the lipoperoxidation” value is “IC50 61.1 ± 5.9 µg/mL”.

Regarding `COC(=O)[C@@]1(C)CCC[C@]2(C)C(CC[C@@H](C)CC(=O)OC3=C(CCC(C)C)C(=O)C4=C(CCCC4)C3=O)=C(C)CCC12` (stereo partly drawn) [Compound 24, Dihydroprenyl-5,6,7,8-tetrahydrolapachoyl Δ8(9) junicedrate methyl ester], the concentration for half-maximal inhibition (IC50) at 24 h in data set [1] and in data set [2] was more than 1000 µM in each case. Moreover, the “Stimulation of fibroblast proliferation” value in the data set with MRC-5 fibroblasts is “inactive”. The GSH entry in the data set with AGS cells [3] (125 µM) is reported as “* 18.7 ± 1.0 nmol/10^6 cells”; with AGS cells [3] (250 µM), “* 18.0 ± 0.9 nmol/10^6 cells”. Further, the “% Inhibition of the lipoperoxidation” value in data set [5] turned out to be 27%. In addition, in the data set on AGS cells [6] (Homo sapiens, AGS, 250 µM, read-out: increase in PGE2 content), the fold induction at 250 µM amounted to 2.4. This compound also had a PGE2 in the data set with AGS cells [6] (250 µM) of 123 ± 12 pg/mL.

Take `COC(=O)[C@@]1(C)CCC[C@@]2(C)C1CC[C@H](C)[C@@H]2CC[C@@H](C)CC(=O)OC1=C(CC=C(C)C)C(=O)C2=C(CCCC2)C1=O` (stereo partly drawn) [Compound 18, Dihydroprenyl-5,6,7,8-tetrahydrolapachoyl 17β-dihydrojunicedrate methyl ester]: the results for the IC50 at 24 h in data set [1] and in data set [2] were 884 ± 62 µM and 369 ± 29 µM, respectively. Besides, in the data set with MRC-5 fibroblasts, the “Percentual proliferative increase” value is recorded as 3.6%. In addition, in the data set on AGS cells [3] (Homo sapiens, AGS, 111 µM, read-out: increase of GSH content compared to untreated controls), the activation at 111 µM was found to be 26%. In addition, the activation at 221 µM in the data set on AGS cells [3] (Homo sapiens, AGS, 221 µM, read-out: increase of GSH content compared to untreated controls) was 26%. Also, the GSH entry is on record as “* 17.1 ± 1.1 nmol/10^6 cells” in the data set on AGS cells [3] (111 µM) and “* 17.2 ± 1.0 nmol/10^6 cells” in the data set with AGS cells [3] (221 µM). For the same compound, the “% Inhibition of the lipoperoxidation” value in data set [5] was found to be 28%. The fold induction at 111 µM with AGS cells [6] (Homo sapiens, AGS, 111 µM, read-out: increase in PGE2 content) was 2.4. Besides, the fold induction at 221 µM with AGS cells [6] (Homo sapiens, AGS, 221 µM, read-out: increase in PGE2 content) was 3. Moreover, the PGE2 with AGS cells [6] (111 µM) was determined as 123 ± 9 pg/mL; with AGS cells [6] (221 µM) it was 156 ± 13 pg/mL.

With `CC1=C(CC[C@@H](C)CC(=O)O)[C@@]2(C)CCC[C@](C)(C(=O)O)C2CC1` (stereo partly drawn) [Compound 5, Δ8(9) Junicedric acid], the half-maximal inhibitory concentration (IC50) at 24 h stood at 666 ± 35 µM in data set [1] and 834 ± 51 µM in data set [2]. In the data set on MRC-5 fibroblasts, the “Percentual proliferative increase” value is 3.6%. Further, the “Effect in the GSH assay” value in the data set on AGS cells [3] (AGS, 1/4 and 1/8 of IC50) was “devoid of activity”. The GSH with AGS cells [3] (83 µM) is on record as 13.6 ± 0.5 nmol/10^6 cells; with AGS cells [3] (166 µM) it was 14.1 ± 0.6 nmol/10^6 cells. The figures for the “reduction in cell viability” value in the data set on AGS cells [4] (83 µM) and with AGS cells [4] (333 µM) were 19% and 35%, respectively. Moreover, in data set [7], the “IC50, inhibition of the lipoperoxidation” value is “IC50 43.8 ± 2.8 µg/mL”.

For the compound `CC(C)=CCC1=C(OC(=O)C[C@H](C)CCC2=C(C)CCC3[C@@](C)(C(=O)O)CCC[C@]23C)C(=O)c2ccccc2C1=O` (stereo partly drawn) [Compound 19, Lapachoyl Δ8(9) junicedrate], the IC50 at 24 h was determined as 148 ± 9 µM in data set [1] and 129 ± 9 µM in data set [2]. Besides, the GSH with AGS cells [3] (19 µM) is 13.1 ± 0.4 nmol/10^6 cells; in the data set with AGS cells [3] (37 µM), 13.5 ± 0.5 nmol/10^6 cells. Moreover, the “reduction in cell viability” value in the data set with AGS cells [4] (19 µM) is given as 15%; with AGS cells [4] (37 µM) it was 27%; in the data set with AGS cells [4] (74 µM), 40%. For the same compound, in data set [5], the “% Inhibition of the lipoperoxidation” value was 49%.

Consider `CC1=C(CC[C@@H](C)CC(=O)OC2=C(CCC(C)C)C(=O)C3=C(CCCC3)C2=O)[C@@]2(C)CCC[C@](C)(C(=O)O)C2CC1` (stereo partly drawn) [Compound 23, Dihydroprenyl-5,6,7,8-tetrahydrolapachoyl Δ8(9) junicedrate], for which the IC50 at 24 h in data set [1] was found to be 29 ± 2 µM; in data set [2], 20 ± 2 µM. In addition, the “Stimulation of fibroblast proliferation” value with MRC-5 fibroblasts was “inactive”. For the same compound, in the data set with AGS cells [3] (Homo sapiens, AGS, 7.3 µM, read-out: increase of GSH content compared to untreated controls), the activation at 7.3 µM was found to be 26%. In addition, the figures for the GSH in the data set with AGS cells [3] (3.6 µM) and with AGS cells [3] (7.3 µM) were 12.6 ± 0.8 nmol/10^6 cells and “* 17.1 ± 1.3 nmol/10^6 cells”, respectively. The entries for the “reduction in cell viability” value in the data set on AGS cells [4] (7.5 µM) and with AGS cells [4] (15 µM) were 32% and 39%, respectively. The “IC50, inhibition of the lipoperoxidation” value in data set [7] was “IC50 59.5 ± 4.3 µg/mL”.
